Here are results for eight compounds from ChEMBL document CHEMBL3044766, “Synthesis, antitubercular and antifungal activities of heteroaryl-substituted oxiranes derived from BaylisHillman adducts” (2012).

The subject of assay [1] is Mycobacterium tuberculosis. In words: Growth inhibition of Mycobacterium tuberculosis H37Rv at 1 ug/ml after 4 weeks by Lowenstein-Jensen method. It is filed as functional, organism-based.
The subject of a further assay is Candida albicans. In words: Antifungal activity against Candida albicans at 100 ug/ml after 24 hr by disk diffusion method. It counts as functional. The conditions noted are these: read-out: DIZ.
Assay [2] deals with Mycobacterium tuberculosis. Briefly: Growth inhibition of Mycobacterium tuberculosis H37Rv at 10 ug/ml after 4 weeks by Lowenstein-Jensen method. It is filed as functional, organism-based.
For assay [3], the system named is Mycobacterium tuberculosis. In words: Growth inhibition of Mycobacterium tuberculosis H37Rv at 100 ug/ml after 4 weeks by Lowenstein-Jensen method. It is filed as functional, organism-based.
For another assay, the system named is Aspergillus fumigatus. Briefly: Antifungal activity against Aspergillus fumigatus at 100 ug/ml after 24 hr by disc diffusion method. It counts as functional. The conditions noted are these: read-out: DIZ. On the technique in general: In agar diffusion tests the substance spreads into inoculated agar from a disc or well.

Each structure is given as a SMILES string. Activity calls are given as the source filed them. No cut-off for these calls is given here.

For the compound `CCOC(=O)C1(C(O)c2ccc[nH]2)CO1` (stereo not given), the “growth inhibition (GI)” value in assay [1], in assay [2] and in assay [3] was “Active” throughout. The zone of inhibition at 100 µg/mL in the assay with Candida albicans and in the assay with Aspergillus fumigatus was 10 mm throughout.

In the case of `CCOC(=O)C1(C(O)c2ccco2)CO1` (stereo not given), the “growth inhibition (GI)” value in assay [1], in assay [2] and in assay [3] was “Active” in each case. Further, the zone of inhibition at 100 µg/mL in the assay with Candida albicans amounted to 8 mm; in the assay on Aspergillus fumigatus, 9 mm.

As to `CCOC(=O)C1(C(O)c2cccs2)CO1` (stereo not given), the “growth inhibition (GI)” value in assay [1], in assay [2] and in assay [3] was “Active” in each case. Further, the values for the zone of inhibition at 100 µg/mL in the assay with Candida albicans and in the assay on Aspergillus fumigatus were 9 mm and 10 mm, respectively.

Turning to `COC(=O)C1(C(O)c2ccco2)CO1` (stereo not given), the “growth inhibition (GI)” value in assay [1], in assay [2] and in assay [3] was “Active” in each case. The zone of inhibition at 100 µg/mL in the assay with Candida albicans turned out to be 7 mm; in the assay with Aspergillus fumigatus, 8 mm.

As for `NC(=O)c1cnccn1`, the “growth inhibition (GI)” value in assay [1], in assay [2] and in assay [3] was “Active” in each case.

In the case of `COC(=O)C1(C(O)c2cccs2)CO1` (stereo not given), the “growth inhibition (GI)” value in assay [1], in assay [2] and in assay [3] was “Active” each time. The zone of inhibition at 100 µg/mL in the assay on Candida albicans and in the assay with Aspergillus fumigatus was 12 mm in each case.

In the case of `COC(=O)C1(C(O)c2ccc[nH]2)CO1` (stereo not given), the “growth inhibition (GI)” value in assay [1], in assay [2] and in assay [3] was “Active” throughout. Further, the figures for the zone of inhibition at 100 µg/mL in the assay on Candida albicans and in the assay on Aspergillus fumigatus were 9 mm and 12 mm, respectively.

Regarding `Clc1ccccc1C(c1ccccc1)(c1ccccc1)n1ccnc1` [CLOTRIMAZOLE], the zone of inhibition at 100 µg/mL came to 20 mm in the assay on Candida albicans and 21 mm in the assay on Aspergillus fumigatus.
